“And” between values parts separate entries of the source, which are not always exact repeats. Equal entries are not always repeated.
Species: Rattus norvegicus
Test: DrugMatrix - Regimen: Daily Repeat
Assay type: toxicity, organism-based, Sprague-Dawley
Design: regimen Daily Repeat, gender Male, age 6-8 weeks
Settings: in vivo, po, 0 mg/kg, route oral GAVAGE, dose level Control, vehicle 100 % SALINE; for ABSOLUTE BASOPHIL / ABSOLUTE LYMPHOCYTE / ABSOLUTE SEGMENTED NEUTROPHIL / BASOPHIL / EOSINOPHIL / ERYTHROCYTE COUNT / HEMATOCRIT / HEMOGLOBIN / LEUKOCYTE COUNT / LYMPHOCYTE / MEAN CORPUSCULAR HEMOGLOBIN / MEAN CORPUSCULAR HEMOGLOBIN CONCENTRATION / MONOCYTE / NEUTROPHIL / NUCLEATED RED BLOOD CELLS / PLATELET COUNT / ABSOLUTE EOSINOPHIL / ABSOLUTE MONOCYTE: tissue Blood
[1] = 72 h, tissue Plasma, time 3 day
[2] = 120 h, tissue Plasma, time 5 day

## CN(C)C=O [DIMETHYLFORMAMIDE]
72 h, time 3 day
  ABSOLUTE BASOPHIL: 0 CELLS/uL
  ABSOLUTE LYMPHOCYTE: 8960.83 CELLS/uL and 11922.83 CELLS/uL
  ABSOLUTE SEGMENTED NEUTROPHIL: 635.67 CELLS/uL and 1526.33 CELLS/uL
  BASOPHIL: 0%
  EOSINOPHIL: 0% and 0.5%
  ERYTHROCYTE COUNT: 5.09 x10E6/uL and 5.62 x10E6/uL
  HEMATOCRIT: 31.8% and 37.17%
  HEMOGLOBIN: 12.42 G/DL and 13.53 G/DL
  LEUKOCYTE COUNT: 9.7 x10E3/uL and 13.92 x10E3/uL
  LYMPHOCYTE: 92.33% and 86.17%
  MEAN CORPUSCULAR HEMOGLOBIN: 24.4 pg and 24.07 pg
  MEAN CORPUSCULAR HEMOGLOBIN CONCENTRATION: 39.07 G/DL and 36.42 G/DL
  MONOCYTE: 1% and 3%
  NEUTROPHIL: 6.67% and 10.33%
  NUCLEATED RED BLOOD CELLS: 0 /100WBC
  PLATELET COUNT: 466.5 x10E3/uL and 1107 x10E3/uL
[1]
  ALANINE AMINOTRANSFERASE: 83.33 u/L and 45.33 u/L
  ALBUMIN: 4.33 G/DL and 4.3 G/DL
  ALKALINE PHOSPHATASE: 340.5 u/L and 321.33 u/L
  ASPARTATE AMINOTRANSFERASE: 189.83 u/L and 77.33 u/L
  BLOOD UREA NITROGEN: 15.83 mg/dL and 14.33 mg/dL
  CARBON DIOXIDE: 38 mmol/L and 32.33 mmol/L
  CHLORIDE: 96.83 MEQ/L and 99.67 MEQ/L
  CHOLESTEROL: 72.5 mg/dL and 82.33 mg/dL
  CREATINE PHOSPHOKINASE: 370.67 u/L and 205.5 u/L
  CREATININE: 0.28 mg/dL and 0.19 mg/dL
  GLUCOSE: 182.83 mg/dL and 150.83 mg/dL
  LIPASE: 9.83 u/L and 10.83 u/L
  PHOSPHORUS: 11.32 mg/dL and 10.9 mg/dL
  SODIUM: 145.12 MEQ/L and 145.15 MEQ/L
  TOTAL BILIRUBIN: 0.2 mg/dL and 0.12 mg/dL
  TOTAL PROTEIN: 6.4 G/DL and 6.22 G/DL
120 h, time 5 day
  ABSOLUTE BASOPHIL: 0 CELLS/uL
  ABSOLUTE EOSINOPHIL: 43.83 CELLS/uL
  ABSOLUTE LYMPHOCYTE: 7316.67 CELLS/uL
  ABSOLUTE MONOCYTE: 87.33 CELLS/uL
  ABSOLUTE SEGMENTED NEUTROPHIL: 418.83 CELLS/uL
  BASOPHIL: 0%
  EOSINOPHIL: 0.33%
  ERYTHROCYTE COUNT: 4.77 x10E6/uL
  HEMATOCRIT: 29.93%
  HEMOGLOBIN: 11.48 G/DL
  LEUKOCYTE COUNT: 7.87 x10E3/uL
  LYMPHOCYTE: 93.5%
  MEAN CORPUSCULAR HEMOGLOBIN: 24.17 pg
  MEAN CORPUSCULAR HEMOGLOBIN CONCENTRATION: 38.57 G/DL
  MONOCYTE: 1%
  NEUTROPHIL: 5.17%
  NUCLEATED RED BLOOD CELLS: 0 /100WBC
  PLATELET COUNT: 377.67 x10E3/uL
[2]
  ALANINE AMINOTRANSFERASE: 89 u/L
  ALBUMIN: 4.42 G/DL
  ALKALINE PHOSPHATASE: 275.17 u/L
  ASPARTATE AMINOTRANSFERASE: 204.17 u/L
  BLOOD UREA NITROGEN: 15.33 mg/dL
  CARBON DIOXIDE: 36.83 mmol/L
  CHLORIDE: 94.67 MEQ/L
  CHOLESTEROL: 92 mg/dL
  CREATINE PHOSPHOKINASE: 514.5 u/L
  CREATININE: 0.24 mg/dL
  GLUCOSE: 184.17 mg/dL
  LACTATE DEHYDROGENASE: 648.67 u/L
  LIPASE: 10 u/L
  PHOSPHORUS: 12.33 mg/dL
  SODIUM: 144.63 MEQ/L
  TOTAL BILIRUBIN: 0.18 mg/dL
  TOTAL PROTEIN: 6.7 G/DL
[…], time 7 day
  ABSOLUTE BASOPHIL: 0 CELLS/uL
  ABSOLUTE EOSINOPHIL: 22 CELLS/uL
  ABSOLUTE LYMPHOCYTE: 11105.17 CELLS/uL
  ABSOLUTE MONOCYTE: 258.17 CELLS/uL
  ABSOLUTE SEGMENTED NEUTROPHIL: 881.33 CELLS/uL
  BASOPHIL: 0%
  EOSINOPHIL: 0.17%
  ERYTHROCYTE COUNT: 5.29 x10E6/uL
  HEMATOCRIT: 34.03%
  HEMOGLOBIN: 13.67 G/DL
  LEUKOCYTE COUNT: 12.27 x10E3/uL
  LYMPHOCYTE: 90.83%
  MEAN CORPUSCULAR HEMOGLOBIN: 25.9 pg
  MEAN CORPUSCULAR HEMOGLOBIN CONCENTRATION: 40.18 G/DL
  MONOCYTE: 2.17%
  NEUTROPHIL: 6.83%
  NUCLEATED RED BLOOD CELLS: 0 /100WBC
  PLATELET COUNT: 1159.83 x10E3/uL
[…], tissue Plasma, time 7 day
  ALANINE AMINOTRANSFERASE: 45.83 u/L
  ALBUMIN: 4.1 G/DL
  ALKALINE PHOSPHATASE: 240 u/L
  ASPARTATE AMINOTRANSFERASE: 88.67 u/L
  BLOOD UREA NITROGEN: 13.67 mg/dL
  CARBON DIOXIDE: 31.83 mmol/L
  CHLORIDE: 96.83 MEQ/L
  CHOLESTEROL: 71.17 mg/dL
  CREATINE PHOSPHOKINASE: 202.5 u/L
  CREATININE: 0.22 mg/dL

From ChEMBL document CHEMBL3885881, “DrugMatrix”
